Data published in ChEMBL document CHEMBL1141943, “Synthesis and antitubercular activity of 2-hydroxy-aminoalkyl derivatives of diaryloxy methano phenanthrenes” (2005).
In brackets after ≈: the same amount, converted by molar mass.

How the values were obtained:
[1] = system: Mycobacterium tuberculosis; assay: Antitubercular activity against Mycobacterium tuberculosis H37Rv by agar microdilution technique; assay type: functional
[2] = system: Mycobacterium tuberculosis; assay: Antitubercular activity against Mycobacterium tuberculosis H37Rv by standard BACTEC radiometric growth assay; assay type: functional

COc1ccc(C(c2ccc(OCC(O)CN3CCN(Cc4ccccc4)CC3)cc2)c2cc3ccccc3c3ccccc23)cc1 (stereo unspecified)
MIC [1]: 25 µg/mL (≈ 40.1 µM)

CCCCNCC(O)COc1ccc(C(c2ccc(OC)cc2)c2cc3ccccc3c3ccccc23)cc1 (stereo unspecified)
MIC [2]: 6.25 µg/mL (≈ 12 µM)
MIC [1]: 6.25 µg/mL (≈ 12 µM)

OC(CNC1CCCCC1)COc1ccc(C(c2ccc(OCC(O)CNC3CCCCC3)cc2)c2cc3ccccc3c3ccccc23)cc1 (stereo unspecified)
MIC [2]: 12.5 µg/mL (≈ 18.2 µM)
MIC [1]: 6.25 µg/mL (≈ 9.1 µM)

CCN(CC)CC(O)COc1ccc(C(c2ccc(OC)cc2)c2cc3ccccc3c3ccccc23)cc1 (stereo unspecified)
MIC [2]: 6.25 µg/mL (≈ 12 µM)
MIC [1]: 6.25 µg/mL (≈ 12 µM)

COc1ccc(C(c2ccc(OCC(O)CNC3CC3)cc2)c2cc3ccccc3c3ccccc23)cc1 (stereo unspecified)
MIC [2]: 25 µg/mL (≈ 49.6 µM)
MIC [1]: 25 µg/mL (≈ 49.6 µM)

COc1ccc(C(c2ccc(OCC3CO3)cc2)c2cc3ccccc3c3ccccc23)cc1 (stereo unspecified)
MIC [1]: 25 µg/mL (≈ 56 µM)

COc1ccc(C(c2ccc(OCC(O)CN3CCCCC3)cc2)c2cc3ccccc3c3ccccc23)cc1 (stereo unspecified)
MIC [2]: 12.5 µg/mL (≈ 23.5 µM)
MIC [1]: 12.5 µg/mL (≈ 23.5 µM)

COc1ccc(C(c2ccc(OCC(O)CN3CCCC3)cc2)c2cc3ccccc3c3ccccc23)cc1 (stereo unspecified)
MIC [2]: 12.5 µg/mL (≈ 24.1 µM)
MIC [1]: 12.5 µg/mL (≈ 24.1 µM)

CN1CCN(CC(O)COc2ccc(C(c3ccc(OCC(O)CN4CCN(C)CC4)cc3)c3cc4ccccc4c4ccccc34)cc2)CC1 (stereo unspecified)
MIC [2]: 12.5 µg/mL (≈ 18.1 µM)
MIC [1]: 12.5 µg/mL (≈ 18.1 µM)

COc1ccc(C(c2ccc(OCC(O)CN3CCN(C)CC3)cc2)c2cc3ccccc3c3ccccc23)cc1 (stereo unspecified)
MIC [2]: 12.5 µg/mL (≈ 22.9 µM)
MIC [1]: 12.5 µg/mL (≈ 22.9 µM)

COc1ccc(C(c2ccc(OCC(O)CN3CCOCC3)cc2)c2cc3ccccc3c3ccccc23)cc1 (stereo unspecified)
MIC [1]: 25 µg/mL (≈ 46.8 µM)

COc1ccc(C(c2ccc(OCC(O)CNC3CCCCC3)cc2)c2cc3ccccc3c3ccccc23)cc1 (stereo unspecified)
MIC [2]: 6.25 µg/mL (≈ 11.5 µM)
MIC [1]: 12.5 µg/mL (≈ 22.9 µM)

OC(COc1ccc(C(c2ccc(OCC(O)CN3CCCCC3)cc2)c2cc3ccccc3c3ccccc23)cc1)CN1CCCCC1 (stereo unspecified)
MIC [2]: 12.5 µg/mL (≈ 19 µM)
MIC [1]: 6.25 µg/mL (≈ 9.49 µM)

COc1ccc(C(c2ccc(OCC(O)CNC3CCCCCC3)cc2)c2cc3ccccc3c3ccccc23)cc1 (stereo unspecified)
MIC [2]: 3.12 µg/mL (≈ 5.57 µM)
MIC [1]: 3.12 µg/mL (≈ 5.57 µM)

OC(COc1ccc(C(c2ccc(OCC(O)CN3CCCC3)cc2)c2cc3ccccc3c3ccccc23)cc1)CN1CCCC1 (stereo unspecified)
MIC [2]: 12.5 µg/mL (≈ 19.8 µM)
MIC [1]: 12.5 µg/mL (≈ 19.8 µM)

NNC(=O)c1ccncc1 [ISONIAZID]
MIC [2]: 0.025 µg/mL (≈ 0.182 µM)
MIC [1]: 0.05 µg/mL (≈ 0.365 µM)

CO[C@H]1/C=C/O[C@@]2(C)Oc3c(C)c(O)c4c(O)c(c(/C=N/N5CCN(C)CC5)c(O)c4c3C2=O)NC(=O)/C(C)=C\C=C\[C@H](C)[C@H](O)[C@@H](C)[C@@H](O)[C@@H](C)[C@H](OC(C)=O)[C@@H]1C [RIFAMPIN]
MIC [2]: 0.2 µg/mL (≈ 0.243 µM)
MIC [1]: 0.1 µg/mL (≈ 0.122 µM)
